Data: paper PMC11302339, “A series of pyrimidine-based antifungals with anti-mold activity disrupt ER function in Aspergillus fumigatus” (Microbiology Spectrum, 2024)
Converted amounts (≈) assume the structure as drawn.

Key:
C. auris = assay: MIC testing (CLSI broth dilution); type: cell-based, Candida auris; conditions: Candidozyma auris, CLSI conditions
Protocol: MICs were determined using Clinical and Laboratory Standards Institute guidelines ([48], [49]). All yeasts were cultured overnight in 3 mL YPD at 30°C, then washed twice in sterile phosphate-buffered saline (PBS). Twofold serial dilutions of each drug were prepared in RMPI + MOPS, then 1 × 10^3 cells were added per well. For mold species, wells were inoculated with 1.25 × 10^3 conidia per well. Plates were incubated at 37°C for 24 (Candida spp. and S. cerevisiae), 48 (Aspergillus spp., M. circinelloides, S. apiospermum, and L. prolificans), or 72 (C. neoformans and F. oxysporum) hours. S. cerevisiae BY4743 MICs were tested in YPD due to nutritional requirements of this strain. Each assay was performed in technical duplicate in at least two independent experiments performed on different days.

C. neoformans H99 = assay: Generation of resistant isolates (high-density plating, serial passaging); type: cell-based, Cryptococcus neoformans
Protocol: Finally, we attempted to generate resistant isolates to understand the rate of resistance and potentially uncover mechanism of action. First, to determine spontaneous rates, we performed high-density plating (~2 × 10^9 cells) of C. neoformans on YPD plates containing 64 µg/mL 1 ([24]). […] Next, we employed serial passaging of both C. neoformans H99 and Saccharomyces cerevisiae BY4741 to evaluate evolved resistance upon exposure to sub-MIC concentrations. Yeast cells were grown in a 96-well format in the presence of 1/4 MIC 1, then cultures were passaged to fresh media containing a twofold increase in drug concentration. At each passage, the inoculum was diluted ~1:100 to allow ~10 generations of growth for a total of at least 50 generations over the course of the experiment.

[1] = tested on: S. cerevisiae heterozygous mutants; assay: Chemical haploinsufficiency screen and spot dilution validation; type: cell-based, Saccharomyces cerevisiae; conditions: YPD 32 µg/mL 1, relative to WT
Protocol: Chemical genetics screening was performed using the Saccharomyces heterozygous deletion collection (Transomic Technologies, TKY3504). Mutant strains were grown overnight in 200 µL YPD in a 96-well plate then pinned into 25 µL PBS using a 96-floating pin multiblot replicator (V&P Scientific Inc, Cat # 408FP6) and library copier (V&P Scientific Inc, Cat # 381). Cell dilutions were then pinned onto an Omni Tray (Nunc, Cat # 242811) single-well plate containing YPD with DMSO or 32 µg/mL 1 for a total of 384 spots per plate. Each plate contained at least one wild type control. Plates were incubated at 30°C and imaged every 24 hours for 4 days. Hits were called by visual evaluation. To validate hits and score growth phenotypes, serial dilutions of OD = 1.0, 0.1, 0.01, and 0.001 were prepared for each mutant from a 200 µL YPD overnight culture in a 96-well plate. Three microliters of each dilution was spotted on YPD containing DMSO or 32 µg /mL 1 and incubated for 72 hours at 30°C. The growth of each mutant on 1 was scored compared to wild-type controls as no inhibition (++++), modest (+++), or severe (+/++) growth inhibition.

C. neoformans ∆ire1 = assay: Susceptibility of ∆ire1 mutant on YPD plates; type: cell-based, Cryptococcus neoformans; conditions: YPD with 4 or 16 µg/mL 1, 30 °C, 72 hours
Protocol: To determine interactions of 1 with ER stress in Cryptococcus neoformans, an overnight culture of H99 was diluted to 1 × 10^6 CFU/mL, then three 10-fold dilutions were prepared. Three-microliter spots of each cell dilution were plated in triplicate on YPD containing DMSO or 4 µg/mL 1 in combination with DTT, brefeldin A, or tunicamycin. Plates were incubated at 37°C for 72 hours. Images are representative of two independent experiments performed in biological triplicate.
Supplemental Figure 3. 1 interacts with ER stress in C. neoformans but activity is not dependent on Ire1. A) Serial dilutions of C. neoformans H99 on YPD with DMSO or 4 µg/mL 1 combined with ER stresses Brefeldin A (BfA), DTT, or Tunicamycin (Tun). Plates were incubated at 37 °C for 72 hours. Representative images of two independent experiments with three biological replicates each. B) Serial dilutions of C. neoformans H99 wild type and ∆ire1 mutant on YPD containing 4 µg/mL 1, 16 µg/mL 1 or DMSO incubated at 30 °C for 72 hours.
Representative images of two independent experiments with three biological replicates each.
(1 picture or pasted object on this page, not shown here)

OC1CC(c2cc(N3CCC(CCc4ccccc4)CC3)ncn2)C1 (stereo not shown) [compound 1]
MIC (C. auris; strain 0390): > 128 µg/mL | MIC (C. auris; strain 3081, drug-resistant clinical isolate): 8 µg/mL (≈ 23.7 µM) | evolved resistance, serial passaging (C. neoformans H99; from 1/4 MIC, twofold increases, at least 50 generations): did not recover stable resistance | spontaneous resistance, high-density plating (C. neoformans H99; ~2 × 10^9 cells on YPD with 64 µg/mL 1): unable to isolate resistant colonies | Growth ([1]; mutant YDR361C BCP1): +++ | Growth ([1]; mutant YDR362C TFC6): +++ | Growth ([1]; mutant YDR373W FRQ1): +++ | Growth ([1]; mutant YDR416W SYF1): +++ | Growth ([1]; mutant YER012W PRE1): +++ | Growth ([1]; mutant YFR051C RET2): +++ | Growth ([1]; mutant YGL047W ALG14): ++ | Growth ([1]; mutant YGL116W CDC20): +++ | Growth ([1]; mutant YGR190C Dubious_HIP1 overlap): +++ | Growth ([1]; mutant YGR191W HIP1): +++ | Growth ([1]; mutant YGR216C GPI1): +++ | Growth ([1]; mutant YHR062C RPP1): +++ | Growth ([1]; mutant YHR068W DYS1): ++ | Growth ([1]; mutant YHR072W ERG7): +++ | Growth ([1]; mutant YHR107C CDC12): +++ | Growth ([1]; mutant YHR122W CIA2): +++ | Growth ([1]; mutant YHR143W-A RPC10): ++ | Growth ([1]; mutant YIL033C BCY1): +++ | Growth ([1]; mutant YIL104C SHQ1): +++ | Growth ([1]; mutant YIL109C SEC24): +++ | Growth ([1]; mutant YIL144W NDC80): +++ | Growth ([1]; mutant YIL147C SLN1): +++ | Growth ([1]; mutant YIL150C MCM10): +++ | Growth ([1]; mutant YIL171W): ++ | Growth ([1]; mutant YIR012W SQT1): +++ | Growth ([1]; mutant YKL049C CSE4): +++ | Growth ([1]; mutant YKL108W SLD2): ++ | Growth ([1]; mutant YKL154W SRP102): ++ | Growth ([1]; mutant YKL180W RPL17A): ++ | Growth ([1]; mutant YKL189W HYM1): ++ | Growth ([1]; mutant YML085C TUB1): + | Growth ([1]; mutant YMR185W RTP1): +++ | Growth ([1]; mutant YMR277W FCP1): +++ | Growth ([1]; mutant YMR314W PRE5): +++ | Growth ([1]; mutant YNL287W SEC21): +++ | Growth ([1]; mutant YPL131W RPL5): +++ | Growth ([1]; mutant YPL142C (no gene name)): + | Growth ([1]; mutant YPL143W RPL33A): + | Growth ([1]; mutant YPL235W RVB2): + | Growth ([1]; mutant YPL237W SUI3): + | Growth ([1]; mutant YPR035W GLN1): +++ | Growth ([1]; mutant YPR136C Dubious_RRP9 overlap): ++ | Growth ([1]; mutant YPR181C SEC23): + | Growth ([1]; mutant YPR187W RPO26): + | susceptibility of ∆ire1 mutant vs wild type (C. neoformans ∆ire1): did not show increased susceptibility
